# Patent US11058680B2, “Combinations of opioid/TLR4 antagonists and acetaminophen for use in the treatment of emotional pain and insomnia” (Allodynic Threapeutics, LLC, priority 2016, dated 2021)
# Tests used:
# [1] = system: patients with low back pain (LBP); assay: Naltrexone/acetaminophen open-label pilot study for low back pain, daily patient diary (WPI, API, WEP, PRSI, insomnia, PGIC, energy, activity); type: in vivo, human
# Description: Twenty patients of whom 16 had chronic low back pain (CLBP), three had acute LBP and one had pain due to Temporomandibular disorders (TMD) were evaluated in an open label pilot study. […] The patient reported diary questionnaire included the following questions.
# Question No. 1: Choose one number that best describes the “Worst Pain” in your lower back in the last 24 hours (WPI) [measured on an 11-point NRS (0=no pain, 10=worst pain possible)].
# Question No. 2: Choose one number that best describes the “Average Pain” in your lower back in the last 24 hours (API) [measured on an 11-point NRS (0=no pain, 10=worst pain possible)].
# Question No. 3: Choose one number that best describes the “Worst Emotional Pain” you experienced in the last 24 hours. (E.g., “Today, I experienced hurt feelings, and/or anger, and/or fear, and/or sadness”).
# Question No. 4: Choose one number that best describes how pain has interfered with your sleep in the last 24 hours [Pain Related Sleep Interference (PRSI) measured on an 11-point NRS (0=no interference, 10=complete interference)].
# Question No. 5: Have you experienced difficulty sleeping or falling asleep (insomnia) in the last 24 hours [measured on an 11-point NRS (0=no insomnia, 10=worst insomnia possible)].
# [2] = system: patient with emotional pain due to football team losses and low back pain; assay: Example 4 case study, patient diary; type: in vivo, human
# [3] = system: patient with chronic low back pain, tendinitis and fear from a near airplane crash; assay: Example 5 case study; type: in vivo, human; details: acetaminophen and ibuprofen prior to study; naltrexone 2.25 mg and acetaminophen 325 mg Q.I.D
# [4] = system: patient with emotional pain due to severe pain caused by acute spinal disk herniation; assay: Example 6 case study, patient diary; type: in vivo, human
# Description: They scheduled an elective inguinal hernia surgery during a time that they had already planned time off from work for their spouse and themself. […] The day after the incident, they took acetaminophen 3000 mg. […] They were in the process of purchasing a home, which they found stressful.
# [5] = system: patient with lower back pain and emotional pain due to conflict at work; assay: Example 7 case study; type: in vivo, human; details: acetaminophen 4 times, one day, naltrexone 2.25 mg and Tylenol 325 mg twice daily
# [6] = system: patient with lower back pain and emotional pain due to anger with poorly-performing employees; assay: Example 10 case study, patient diary; type: in vivo, human
# From the text: A person building contractor with a history of lower back pain reported emotional pain due to frustration with their three employees' poor job performance. […] Treatment with naltrexone and acetaminophen eliminated their physical, as well as their emotional pain, which happened overnight.
# [7] = system: patient with emotional pain due to relationship break-up; assay: Example 11 case study, patient diary; type: in vivo, human; details: APAP 325 mg Q.I.D., Sep. 25-Oct. 2, 2015
# [8] = system: patient with lower back and leg pain and emotional pain due to separation from a child; assay: Example 12 case study, patient diary; details: for API, average pain intensity (0-10 NRS) / Insomnia (0-10 NRS) / PRSI, Pain Related Sleep Interference (0-10 NRS) / WEP, Worst Emotional Pain (0-10 NRS) / WPI, Worst Pain Intensity (0-10 NRS): Ibuprofen 800 mg T.I.D. PRN 2006-2010
# [9] = system: patient with emotional pain due to adjustment disorder, grieving passing of a pet; assay: Example 2 case study, emotional pain diary on 4-point scale (0=none, 1=mild, 2=moderate, 3=severe); type: in vivo, human; details: xanax before study treatment
# From the text: The patient experienced a stressful life event (bereavement) that interfered with social functioning. […] The emotional pain intensity was rated on a 4-point unipolar scale (0=none, 1=mild, 2=moderate, 3=severe).
# [10] = system: migraine; details: literature, Brandes et al. JAMA 2007; cited from earlier work
# [11] = on treatment, last day, APAP 325 mg alone (N = 8, avg 9.83 days), NTX/APAP 2.25/325 mg (n = 18, avg 25.4 days)
# [12] = treatment period, APAP 325 mg alone, NTX/APAP 2.25/325 mg
# [13] = APAP 325 mg Q.I.D. Jun. 29-Jul. 8, 2015, NTX 2.25 mg/APAP 325 mg Q.I.D. Jul. 9-Aug. 9, 2015
# [14] = APAP 325 mg Q.I.D., NTX 2.25 mg/APAP 325 mg Q.I.D.
# [15] = APAP 1000 mg TID, Aug. 18-19, 2015
# [16] = acetaminophen 3000 mg, the day after the incident
# [17] = APAP 325 mg Q.I.D., Sep. 29-Oct. 1, 2015
# [18] = acetaminophen for three days, naltrexone and acetaminophen, overnight
# [19] = Naltrexone 2.25 mg Q.I.D./Clonidine 0.025 mg Q.I.D. 2010-2015, APAP 325 mg Q.I.D. Jun. 29-Jul. 6, 2015, Naltrexone 2.5 mg Q.I.D. to Jul. 8, 2015, Naltrexone 2.25 mg/APAP 325 mg Q.I.D. Jul. 9-Oct. 4, 2015
structure (smiles),measurement,setting,value
CC(=O)Nc1ccc(O)cc1 [acetaminophen],"API Avg., average pain intensity (0-10 NRS)",[1]; [11],4.25
same,"Activity Avg., change in activity level (1-7 Likert)",[1]; [11],4.67
same,"Energy Avg., change in energy level (1-7 Likert)",[1]; [11],4.67
same,Insomnia Avg. (0-10 NRS),[1]; [11],4.33
same,"PGIC Avg., Patient Global Impression of Change (1-7 Likert, 7 = very much improved)",[1]; [11],5.00
same,"PRSI Avg., Pain Related Sleep Interference (0-10 NRS)",[1]; [11],4.00
same,"WEP Avg., Worst Emotional Pain (0-10 NRS)",[1]; [11],5.17
same,"WPI Avg., Worst Pain Intensity (0-10 NRS)",[1]; [11],5.25
same,"Mean Improvement from Baseline, API (0-10 NRS)",[1]; [12],1.28
same,"Mean Improvement from Baseline, Insomnia (0-10 NRS)",[1]; [12],−0.23
same,"Mean Improvement from Baseline, PRSI (0-10 NRS)",[1]; [12],0.90
same,"Mean Improvement from Baseline, WEP (0-10 NRS)",[1]; [12],0.14
same,"Mean Improvement from Baseline, WPI (0-10 NRS)",[1]; [12],1.43
same,"API, average pain intensity (0-10 NRS)",[2]; [13],3
same,Insomnia (0-10 NRS),[2]; [13],0
same,"PRSI, Pain Related Sleep Interference (0-10 NRS)",[2]; [13],0
same,"WEP, Worst Emotional Pain (0-10 NRS)",[2]; [13],2
same,"WPI, Worst Pain Intensity (0-10 NRS)",[2]; [13],3
same,"Improvement from baseline, API",[2]; [14],25%
same,"Improvement from baseline, WEP",[2]; [14],33%
same,"Improvement from baseline, WPI",[2]; [14],40%
same,ability to handle emotional disturbance due to team losses,"[2]; Tylenol 325 mg, 4 times daily for 10 days",did not report improvement
same,elimination/reduction of emotional and physical pain symptoms,"[2]; naltrexone and acetaminophen for one month, acetaminophen alone",25%-40%
same,"relief of physical pain (low back, foot)",[3],without significant relief
same,"API, average pain intensity (0-10 NRS)",[4]; [15],8
same,Insomnia (0-10 NRS),[4]; [15],9
same,PGIC (1-7 Likert),[4]; [15],5
same,"PRSI, Pain Related Sleep Interference (0-10 NRS)",[4]; [15],9
same,"WEP, Worst Emotional Pain (0-10 NRS)",[4]; [15],6
same,"WPI, Worst Pain Intensity (0-10 NRS)",[4]; [15],9
same,emotional pain (NRS),[4]; [16],6 /10
same,insomnia improved by,[4]; [16],1 point
same,pain level improved by,[4]; [16],1 point
same,emotional pain (patient report),[5],did not notice a change
same,back pain (patient report),[5]; within three days,slight improvement
same,"API, average pain intensity (0-10 NRS)",[6]; [17],2.5
same,Insomnia (0-10 NRS),[6]; [17],2
same,PGIC (1-7 Likert),[6]; [17],5
same,"PRSI, Pain Related Sleep Interference (0-10 NRS)",[6]; [17],4
same,"WEP, Worst Emotional Pain (0-10 NRS)",[6]; [17],3
same,"WPI, Worst Pain Intensity (0-10 NRS)",[6]; [17],4
same,back/physical pain (patient report),[6]; [18],improved their back pain
same,emotional pain (patient report),[6]; [18],remained unchanged
same,"API, average pain intensity (0-10 NRS)",[7],5
same,Insomnia (0-10 NRS),[7],10
same,PGIC (1-7 Likert),[7],5
same,"PRSI, Pain Related Sleep Interference (0-10 NRS)",[7],3.5
same,"WEP, Worst Emotional Pain (0-10 NRS)",[7],10
same,"WPI, Worst Pain Intensity (0-10 NRS)",[7],7
same,"API, average pain intensity (0-10 NRS)",[8]; [19],3.5
same,Insomnia (0-10 NRS),[8]; [19],5.5
same,"PRSI, Pain Related Sleep Interference (0-10 NRS)",[8]; [19],4.5
same,"WEP, Worst Emotional Pain (0-10 NRS)",[8]; [19],5.0
same,"WPI, Worst Pain Intensity (0-10 NRS)",[8]; [19],4.5
same,PGIC (1-7 Likert),[8]; [19],5
same,emotional pain due to separation from child (patient report),"[8]; naltrexone/clonidine, acetaminophen 325 mg four times daily 5 days, naltrexone alone 12 days, naltrexone 2.25 mg and acetaminophen 325 mg four times daily almost three months",same level of emotional pain
Cc1nnc2n1-c1ccc(Cl)cc1C(c1ccccc1)=NC2 [xanax],relief of emotional pain (patient report),[9],did not help
CNS(=O)(=O)Cc1ccc2[nH]cc(CCN(C)C)c2c1 [sumatriptan],2-hour headache (migraine) pain-free,[10],25%
CC(C)Cc1ccc(C(C)C(=O)O)cc1 (stereo not shown) [Ibuprofen],"relief of physical pain (low back, foot)",[3],without significant relief
same,"API, average pain intensity (0-10 NRS)",[8]; [19],5.5
same,Insomnia (0-10 NRS),[8]; [19],9
same,"PRSI, Pain Related Sleep Interference (0-10 NRS)",[8]; [19],7
same,"WEP, Worst Emotional Pain (0-10 NRS)",[8]; [19],7
same,"WPI, Worst Pain Intensity (0-10 NRS)",[8]; [19],6
